Laboratory results from ChEMBL document CHEMBL1909046, “DrugMatrix in vitro pharmacology data”.

What was measured:
[1] = target: T1, Alpha-2C adrenergic receptor (Homo sapiens, UniProt P18825); assay: DRUGMATRIX: Adrenergic Alpha-2C radioligand binding (ligand: [3H] MK-912); format: cell membranes, Sf9, Membrane; conditions: sf9
T1 sequence (P18825 whole entry): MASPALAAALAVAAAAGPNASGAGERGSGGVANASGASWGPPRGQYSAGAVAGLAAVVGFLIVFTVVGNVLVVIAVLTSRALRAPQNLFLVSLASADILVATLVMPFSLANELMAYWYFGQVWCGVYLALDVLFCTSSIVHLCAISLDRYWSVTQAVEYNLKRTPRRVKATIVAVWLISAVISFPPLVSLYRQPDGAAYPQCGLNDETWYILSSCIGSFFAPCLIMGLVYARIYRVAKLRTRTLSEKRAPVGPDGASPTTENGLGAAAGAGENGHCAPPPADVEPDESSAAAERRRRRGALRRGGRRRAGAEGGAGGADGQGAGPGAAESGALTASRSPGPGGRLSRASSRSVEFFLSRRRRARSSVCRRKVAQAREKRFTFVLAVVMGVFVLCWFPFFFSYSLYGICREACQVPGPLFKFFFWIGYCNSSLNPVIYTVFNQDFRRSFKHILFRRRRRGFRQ

[2] = target: Beta-1 adrenergic receptor (Homo sapiens, UniProt P08588); assay: DRUGMATRIX: Adrenergic beta1 radioligand binding (ligand: [125I] Cyanopindolol); format: cell membranes, CHO-K1, Membrane; conditions: cho-k1; Not Active = under 50% inhibition at 10 µM
[3] = target: Beta-3 adrenergic receptor (Homo sapiens, UniProt P13945); assay: DRUGMATRIX: Adrenergic beta3 radioligand binding (ligand: [125I] Cyanopindolol); format: cell membranes, HEK293, Membrane; conditions: hek293; Not Active = under 50% inhibition at 10 µM
[4] = DRUGMATRIX: Calcium Channel Type L, Dihydropyridine radioligand binding (ligand: [3H] Nitrendipine); format: cell membranes, Rattus norvegicus, Wistar, Cerebral cortex, Membrane; conditions: Not Active = under 50% inhibition at 10 µM
[5] = target: 5-hydroxytryptamine receptor 6 (Homo sapiens, UniProt P50406); format: cell membranes, HeLa, Membrane; conditions: hela; also: in other assays of this panel Not Active means under 50% inhibition at 10 µM
Carbonic anhydrase 2 = Carbonic anhydrase 2 (Homo sapiens, UniProt P00918); assay: DRUGMATRIX: Carbonic Anhydrase II enzyme inhibition (substrate: 4-Nitrophenyl acetate (4-NPA)); format: tissue-based, Erythrocyte; conditions: erythrocyte; Not Active = under 50% inhibition at 10 µM
[6] = target: T2, C-C chemokine receptor type 4 (Homo sapiens, UniProt P51679); format: cell membranes, Membrane; conditions: chem-1; also: in other assays of this panel Not Active means under 50% inhibition at 10 µM
T2 sequence (P51679 whole entry): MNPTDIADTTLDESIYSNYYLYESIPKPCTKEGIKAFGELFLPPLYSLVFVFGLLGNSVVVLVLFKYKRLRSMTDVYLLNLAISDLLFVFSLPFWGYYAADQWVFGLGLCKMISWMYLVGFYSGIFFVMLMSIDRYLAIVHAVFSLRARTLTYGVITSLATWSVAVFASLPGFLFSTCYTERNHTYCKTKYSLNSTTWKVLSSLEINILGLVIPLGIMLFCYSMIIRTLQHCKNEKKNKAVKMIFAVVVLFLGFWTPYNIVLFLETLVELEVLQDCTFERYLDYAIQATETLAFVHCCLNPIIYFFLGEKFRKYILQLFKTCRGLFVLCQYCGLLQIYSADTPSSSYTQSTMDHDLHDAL

[7] = target: C-C chemokine receptor type 5 (Homo sapiens, UniProt P51681); format: cell membranes, Membrane; conditions: hek293; also: in other assays of this panel Not Active means under 50% inhibition at 10 µM
Glycine receptor = Glycine receptor (Rattus norvegicus, UniProt P22771+P24524+P07727+P20781); format: cell membranes, Wistar, Spinal cord, Membrane; also: in other assays of this panel Not Active means under 50% inhibition at 10 µM
[8] = DRUGMATRIX: Imidazoline I2, Central radioligand binding (ligand: [3H] Idazoxan); format: cell membranes, Rattus norvegicus, Wistar, Cerebral cortex, Membrane; conditions: Not Active = under 50% inhibition at 10 µM
Adenosine receptor A1 = target: T3, Adenosine receptor A1 (Homo sapiens, UniProt P30542); format: cell membranes, CHO, Membrane
T3 sequence (P30542 whole entry): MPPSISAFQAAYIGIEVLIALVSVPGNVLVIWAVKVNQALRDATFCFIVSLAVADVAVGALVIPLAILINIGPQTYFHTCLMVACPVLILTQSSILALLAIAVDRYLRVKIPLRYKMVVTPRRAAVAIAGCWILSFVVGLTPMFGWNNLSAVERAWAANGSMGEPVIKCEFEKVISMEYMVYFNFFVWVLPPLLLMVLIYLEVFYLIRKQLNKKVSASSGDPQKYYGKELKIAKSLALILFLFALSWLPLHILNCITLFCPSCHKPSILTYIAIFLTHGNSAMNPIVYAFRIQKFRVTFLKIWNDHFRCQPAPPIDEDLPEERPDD

Glucocorticoid receptor = target: T4, Glucocorticoid receptor (Homo sapiens, UniProt P04150); conditions: hela s3; also: in other assays of this panel Not Active means under 50% inhibition at 10 µM
T4 sequence (P04150 whole entry): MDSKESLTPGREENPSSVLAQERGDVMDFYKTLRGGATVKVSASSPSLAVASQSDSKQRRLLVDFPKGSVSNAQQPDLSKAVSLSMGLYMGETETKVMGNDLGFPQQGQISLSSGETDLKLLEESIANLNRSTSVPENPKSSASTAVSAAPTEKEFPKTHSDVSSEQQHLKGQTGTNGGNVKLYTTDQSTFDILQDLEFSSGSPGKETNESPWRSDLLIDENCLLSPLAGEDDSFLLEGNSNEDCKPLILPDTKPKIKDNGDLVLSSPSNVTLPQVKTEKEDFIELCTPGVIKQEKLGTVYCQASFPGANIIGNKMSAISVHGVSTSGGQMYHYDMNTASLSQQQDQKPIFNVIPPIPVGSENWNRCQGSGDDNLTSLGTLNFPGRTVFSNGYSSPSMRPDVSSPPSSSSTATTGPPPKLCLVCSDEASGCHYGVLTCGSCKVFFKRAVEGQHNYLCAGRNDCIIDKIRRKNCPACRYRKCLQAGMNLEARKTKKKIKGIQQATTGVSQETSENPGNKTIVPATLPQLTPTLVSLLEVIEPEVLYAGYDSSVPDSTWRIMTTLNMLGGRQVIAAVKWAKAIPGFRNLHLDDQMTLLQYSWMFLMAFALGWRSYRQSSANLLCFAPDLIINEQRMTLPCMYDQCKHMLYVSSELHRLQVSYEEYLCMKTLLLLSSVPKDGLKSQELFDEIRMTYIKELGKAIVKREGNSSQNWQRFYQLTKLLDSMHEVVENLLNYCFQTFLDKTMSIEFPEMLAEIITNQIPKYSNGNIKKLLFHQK

Chain of Beta-1 adrenergic receptor (P08588 whole entry): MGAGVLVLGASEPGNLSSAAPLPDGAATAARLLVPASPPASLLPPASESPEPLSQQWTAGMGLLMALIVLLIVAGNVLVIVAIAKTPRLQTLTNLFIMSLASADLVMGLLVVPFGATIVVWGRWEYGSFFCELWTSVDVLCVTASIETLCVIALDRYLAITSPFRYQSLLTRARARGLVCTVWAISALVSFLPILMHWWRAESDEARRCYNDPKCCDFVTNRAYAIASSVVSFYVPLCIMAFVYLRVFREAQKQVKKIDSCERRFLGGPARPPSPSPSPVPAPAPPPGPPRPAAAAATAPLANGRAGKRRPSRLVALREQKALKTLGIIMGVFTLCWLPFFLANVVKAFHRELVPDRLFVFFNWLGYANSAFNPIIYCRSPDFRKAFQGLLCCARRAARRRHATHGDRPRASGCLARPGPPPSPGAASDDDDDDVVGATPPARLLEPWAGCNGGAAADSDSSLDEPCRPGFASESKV
Chain of Beta-3 adrenergic receptor (P13945 whole entry): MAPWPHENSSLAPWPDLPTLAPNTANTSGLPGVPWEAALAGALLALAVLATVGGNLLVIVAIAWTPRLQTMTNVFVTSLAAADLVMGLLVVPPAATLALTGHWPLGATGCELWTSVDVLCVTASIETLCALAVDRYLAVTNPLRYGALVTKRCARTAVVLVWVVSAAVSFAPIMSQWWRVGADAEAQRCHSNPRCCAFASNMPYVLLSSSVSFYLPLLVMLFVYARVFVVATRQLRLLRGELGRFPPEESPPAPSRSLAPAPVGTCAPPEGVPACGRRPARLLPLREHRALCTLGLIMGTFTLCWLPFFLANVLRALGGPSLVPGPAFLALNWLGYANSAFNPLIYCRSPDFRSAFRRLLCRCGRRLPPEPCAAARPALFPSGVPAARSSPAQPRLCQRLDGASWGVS
Chain of C-C chemokine receptor type 5 (P51681 whole entry): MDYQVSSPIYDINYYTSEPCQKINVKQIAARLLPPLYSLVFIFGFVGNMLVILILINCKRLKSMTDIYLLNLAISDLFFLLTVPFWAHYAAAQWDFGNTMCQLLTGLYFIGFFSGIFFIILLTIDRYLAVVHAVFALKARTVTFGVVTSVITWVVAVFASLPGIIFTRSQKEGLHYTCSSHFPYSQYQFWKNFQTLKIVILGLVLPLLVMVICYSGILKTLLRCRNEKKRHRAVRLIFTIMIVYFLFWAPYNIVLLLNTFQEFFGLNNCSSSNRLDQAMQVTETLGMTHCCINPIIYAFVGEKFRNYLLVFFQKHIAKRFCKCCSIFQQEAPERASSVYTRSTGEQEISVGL
Chain of 5-hydroxytryptamine receptor 6 (P50406 whole entry): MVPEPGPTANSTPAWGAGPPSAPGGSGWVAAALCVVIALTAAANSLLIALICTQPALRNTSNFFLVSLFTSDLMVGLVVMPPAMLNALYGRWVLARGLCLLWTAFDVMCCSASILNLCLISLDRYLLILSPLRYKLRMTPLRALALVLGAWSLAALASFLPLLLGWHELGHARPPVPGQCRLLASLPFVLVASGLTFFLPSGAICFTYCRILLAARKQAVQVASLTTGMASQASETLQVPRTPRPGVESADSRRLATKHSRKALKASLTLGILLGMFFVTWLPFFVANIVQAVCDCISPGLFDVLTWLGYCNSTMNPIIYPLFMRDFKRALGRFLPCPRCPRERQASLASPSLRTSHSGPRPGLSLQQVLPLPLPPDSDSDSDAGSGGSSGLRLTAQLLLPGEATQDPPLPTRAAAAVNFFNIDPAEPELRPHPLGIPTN

| Compound | IC50 [1] | IC50 [2] | IC50 [3] | IC50 [4] | Ki [4] | IC50 [5] | IC50 (Carbonic anhydrase 2) | IC50 [6] | IC50 [7] | IC50 (Glycine receptor) | IC50 [8] | Ki [8] | IC50 (Adenosine receptor A1; cho) | IC50 (Glucocorticoid receptor) | IC50 (Adenosine receptor A1; read-out: IC50) | Ki (Adenosine receptor A1; read-out: Ki) |
| --- | --- | --- | --- | --- | --- | --- | --- | --- | --- | --- | --- | --- | --- | --- | --- | --- |
| CCCSc1ccc2nc(NC(=O)OC)[nH]c2c1 [ALBENDAZOLE] | Not Active | Not Active | Not Active | Not Active | Not Active | Not Active | Not Active | Not Active | Not Active | Not Active | Not Active | Not Active | Not Active | Not Active |  |  |
| O=c1cc(-c2ccccc2)oc2c1ccc1ccccc12 [ALPHA-NAPHTHOFLAVONE] | Not Active | Not Active | Not Active | Not Active | Not Active | Not Active | Not Active | Not Active | Not Active | Not Active | Not Active | Not Active |  | Not Active | 1130 nM | 661 nM |
| NCC[C@H](O)C(=O)N[C@@H]1C[C@H](N)[C@@H](O[C@H]2O[C@H](CN)[C@@H](O)[C@H](O)[C@H]2O)[C@H](O)[C@H]1O[C@H]1O[C@H](CO)[C@@H](O)[C@H](N)[C@H]1O [AMIKACIN] | Not Active | Not Active | Not Active | Not Active | Not Active | Not Active | Not Active | Not Active | Not Active | Not Active | Not Active | Not Active | Not Active | Not Active |  |  |
| CCOC(=O)OC(C)OC1=C(C(=O)Nc2ccccn2)N(C)S(=O)(=O)c2ccccc21 (stereo unspecified) [AMPIROXICAM] | Not Active | Not Active | Not Active | Not Active | Not Active | Not Active | Not Active | Not Active | Not Active | Not Active | Not Active | Not Active | Not Active | Not Active |  |  |
| N#C[C@H](O[C@@H]1O[C@H](CO[C@@H]2O[C@H](CO)[C@@H](O)[C@H](O)[C@H]2O)[C@@H](O)[C@H](O)[C@H]1O)c1ccccc1 [AMYGDALIN] | Not Active | Not Active | Not Active | Not Active | Not Active | Not Active | Not Active | Not Active | Not Active | Not Active | Not Active | Not Active | Not Active | Not Active |  |  |
| C=C1[C@@H]2CCC3[C@@](CC[C@@H]4[C@H](C(=O)O)C[C@@H](O[C@@H]5O[C@H](CO)[C@@H](OS(=O)(=O)[O-])[C@H](OS(=O)(=O)[O-])[C@H]5OC(=O)CC(C)C)C[C@@]34C)(C2)[C@@H]1O.[K+].[K+] (stereo partly specified) [ATRACTYLOSIDE] | Not Active | Not Active | Not Active | Not Active | Not Active | Not Active | Not Active | Not Active | Not Active | Not Active | Not Active | Not Active | Not Active | Not Active |  |  |
| Cn1cnc([N+](=O)[O-])c1Sc1ncnc2nc[nH]c12 [AZATHIOPRINE] | Not Active | Not Active | Not Active | Not Active | Not Active | Not Active | Not Active | Not Active | Not Active | Not Active | Not Active | Not Active | Not Active | Not Active |  |  |
| CC1(C)S[C@@H]2[C@H](NC(=O)[C@H](NC(=O)N3CCNC3=O)c3ccccc3)C(=O)N2[C@H]1C(=O)O [AZLOCILLIN] | Not Active | Not Active | Not Active | Not Active | Not Active | Not Active | Not Active | Not Active | Not Active | Not Active | Not Active | Not Active | Not Active | Not Active |  |  |
| CCOC(=O)c1ccc(N)cc1 [BENZOCAINE] | Not Active | Not Active | Not Active | Not Active | Not Active | Not Active | Not Active | Not Active | Not Active | Not Active | Not Active | Not Active | Not Active | Not Active |  |  |
| OCc1ccccc1 [BENZYL ALCOHOL] | Not Active | Not Active | Not Active | Not Active | Not Active | Not Active | Not Active | Not Active | Not Active | Not Active | Not Active | Not Active | Not Active | Not Active |  |  |
